Legend:
Type in all cases: in vivo, Sprague Dawley rats
[1] = system: OA rats (bilateral anterior cruciate ligament surgical resection); experiment: Histopathological evaluation (modified Mankin score), OA rats by anterior cruciate ligament resection, monthly treatment; settings: 4 monthly i.a. doses, scale 0 (normal) to 15 (seriously damaged)
Method: (§1) In this study, the efficacy of a treatment performed by monthly intra-articular administration of sodium chlodronate on male “Sprague Dawley” rats affected by OA was evaluated. The treatment involved 4 monthly doses of sodium chlodronate, followed by one month of follow-up.
(§2) In the experimental model, OA was induced in rats by bilateral anterior cruciate ligament surgical resection in both hind limbs.
(§3) A volume of 50 μL of treatment solution, having a pH of about 4.5, as measured just before administration, was injected into the intra-articular cavity of each knee.
(§4) The study included 5 treatment groups, each consisting of 10 male rats, specifically two treatment groups consisting of OA rats, on which chlodronate doses of 8 and 12 mg/ml, corresponding to 0.4 and 0.6 mg/rat, were tested, and remaining three groups represented by untreated OA rats, operated but untreated Sham rats, and rats receiving placebo alone.
(§5) During the treatment period, the animals were regularly checked in relation to the increase in body mass, food intake and general health conditions. Clinical and hematological analyses were performed at the end of the study. […]

[2] = system: CTX-I (C-telopeptide of type I collagen); experiment: CTX-I final serum concentration, MIA-induced OA rats, weekly treatment
Method: As an experimental model of OA induction, one involving the intra-articular administration of MIA (monosodium iodoacetate) was used.
The rats were anesthetized by a gaseous mixture of isoflurane and oxygen, and maintained in a supine position. Once the infrapatellar ligament was identified by touch, a single intra-articular injection of monosodium iodoacetate (MIA) was performed in the right knee, after having shaved the skin of the area, while keeping the joint slightly flexed. The amount of MIA injected was equal to 1 mg dissolved in 50 μl of saline solution, having a pH of about 4.5, as measured just before administration. The joint of the left knee was instead injected with 50 μl of saline solution alone, and this represented the internal control.
The treatment involved 4 weekly administrations of sodium chlodronate, followed by one week of follow-up.
The study included 8 treatment groups, each consisting of 10 male Sprague Dawley rats, specifically five treatment groups consisting of OA rats, on which the chlodronate doses of 2, 10, 20, 30, and 40 mg/ml, corresponding to 0.1, 0.5, 1, 1.5, and 2 mg/rat, were tested, and the remaining three groups represented by untreated OA rats, operated but untreated Sham rats, and rats administered only with placebo at pH 4.5.
During the treatment period, the animals were regularly checked in relation to the increase in body mass, food intake, and general health conditions. Clinical and hematological analyses were performed at the end of the study. The difference between the size of the edema in the two inflamed knees for all the observation groups, the final serum concentration of CTX-I (C-telopeptide of type I collagen), as a marker of bone turnover, and the final serum concentration of CTX-II (C-telopeptide of type II collagen), as a marker of cartilage turnover were investigated.
Considering that CTX-I (C-telopeptide of type I collagen) is a bone turnover marker and its concentration levels are proportional to the osteoclastic activity, the measurement of CTX-I final serum concentration value is a measure of the treatment efficacy.

[3] = system: OA rats (bilateral anterior cruciate ligament surgical resection); experiment: Histomorphometric evaluation of the cartilage area, OA rats by anterior cruciate ligament resection, monthly treatment; settings: 4 monthly i.a. doses
Method: as §1, §2, §3, §4, §5
Histomorphometric quantitative measurements of the cartilage area were performed using Image-Pro Plus 4.1 software for windows (Media Cybernetics, Maryland, USA). […]

SMILES: O=P([O-])(O)C(Cl)(Cl)P(=O)([O-])O.[Na+].[Na+] [Sodium Chlodronate, sodium chlodronate]
- Mankin Index Mean Value ± SEM ([1]; 8 mg/ml (0.4 mg/rat)): 4.9 ± 0.458
- Mankin Index Mean Value ± SEM ([1]; 12 mg/ml (0.6 mg/rat)): 2.6 ± 0.618
- CTX-I Value ([2]; 2 mg/mL weekly i.a.): 4.77 pg/mL
- CTX-I Value ([2]; 10 mg/mL weekly i.a.): 4.87 pg/mL
- CTX-I Value ([2]; 20 mg/mL weekly i.a.): 4.6 pg/mL
- CTX-I Value ([2]; 30 mg/mL weekly i.a.): 4.36 pg/mL
- CTX-I Value ([2]; 40 mg/mL weekly i.a.): 4.16 pg/mL
- Cartilage Area Average Value ± SEM ([3]; 8 mg/ml (0.4 mg/rat)): 486 ± 157.7
- Cartilage Area Average Value ± SEM ([3]; 12 mg/ml (0.6 mg/rat)): 435 ± 125.9

— patent publication US11123354B2, “Method for the treatment of osteoarthritis” (ABIOGEN PHARMA S.P.A., priority 2016, dated 2021)
